# Tests used:
# USP32 = molecular target: T1, USP32 (Homo sapiens, UniProt Q8NFA0); experiment: IC50 determination, fluorogenic Ub-Rho-morpholine activity assay; format: biochemical; conditions: after 30 min incubation; purified compound
# T1 construct: (1-1604); His-tag (N); made in house
# UCHL3 = molecular target: T2, UCHL3 (Homo sapiens, UniProt P15374); experiment: as above; format: biochemical; conditions: after 30 min incubation; purified compound
# T2 construct: (1-230); made in house
# T2 sequence (P15374 1-230): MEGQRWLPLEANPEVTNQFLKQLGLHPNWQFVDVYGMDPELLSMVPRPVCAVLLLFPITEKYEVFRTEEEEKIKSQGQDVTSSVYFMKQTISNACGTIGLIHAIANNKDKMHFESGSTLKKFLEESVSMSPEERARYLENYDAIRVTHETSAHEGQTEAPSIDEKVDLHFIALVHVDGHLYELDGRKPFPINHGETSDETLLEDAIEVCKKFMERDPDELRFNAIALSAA
# USP30 [1] = molecular target: T3, USP30 (Homo sapiens, UniProt Q70CQ3); experiment: High-throughput screening, Ub-RhoMP, single dose 1.25 µM; format: biochemical; design: USP30 CD (57-517); purchased Ubiquigent 64-0057-050; conditions: crude in-plate synthesized compound, 1.25 µM assuming full conversion
# T3 sequence (Q70CQ3 57-517): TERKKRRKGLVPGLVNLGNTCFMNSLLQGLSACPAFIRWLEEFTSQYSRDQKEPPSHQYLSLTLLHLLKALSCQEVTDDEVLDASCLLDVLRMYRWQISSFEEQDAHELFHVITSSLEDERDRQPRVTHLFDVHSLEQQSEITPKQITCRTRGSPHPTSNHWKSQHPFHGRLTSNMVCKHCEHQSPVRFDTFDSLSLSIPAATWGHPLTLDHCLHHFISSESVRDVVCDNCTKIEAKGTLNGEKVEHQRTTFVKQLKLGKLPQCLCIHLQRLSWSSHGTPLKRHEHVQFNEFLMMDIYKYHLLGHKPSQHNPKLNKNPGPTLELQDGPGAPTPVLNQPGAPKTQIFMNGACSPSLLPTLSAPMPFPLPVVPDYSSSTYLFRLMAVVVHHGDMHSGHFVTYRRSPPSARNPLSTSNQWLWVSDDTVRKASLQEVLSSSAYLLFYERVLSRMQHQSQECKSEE
# Procedure: Since the in‐plate synthesis was conducted in 1536‐well Echo plates, the compounds could readily be transferred from these plates into 1536‐well assay plates using acoustic liquid dispensing (Figure 2a) and subjected to HTS. We screened the whole 7536 compound library against a panel of twelve enzymes, including three DUBs from the UCH family, two DUBs from the OTU family, five DUBs from the USP family, plus ISG15 protease USP18, and SUMO protease SENP1. Each compound was tested at a single dose of 1.25 µM, assuming full conversion (10 mM in DMSO of the formed products) during the in‐plate synthesis, using the fluorogenic assay described above. […] The compounds are sorted by the amine building blocks (BB1‐16), and within each BB, sorted by carboxylic acid (CA1‐471), thereby providing a comprehensive and systematic overview of the overall inhibition by each BB and CA combination. Some interesting patterns can be obtained from this map. […] Indeed, BB10 is the privileged scaffold for UCHL1 as it originates from UCHL1 inhibitor 5 (Figure 1). […] On the other hand, OTUD1 and USP32 show a much higher hit rate, and this is even more pronounced for USP30 and ISG15 protease mUSP18, each showing many active compounds distributed over several BB's.
# Purified recombinant enzymes used in this study
# High-throughput screening
# The screens were performed at room temperature in “flat bottom, non-treated, black […]
# µM. The compounds (10 nL each) were transferred from the 1 mM daughter plates to the […]
# Four wells containing DMSO
# (10 nL) and four wells containing NEM (10 mM final concentration) were used in each plate […]
# solution (1.33x final concentration) was added to each well, followed by incubation for 30 min.
# Next, 2 µL of a substrate solution (4x final concentration) was added to each well (Ub-RhoMP[2]
# After 1h or 2h incubation the
# The percentage inhibition was calculated for each well using the […]
# Where FIx is the fluorescence intensity of each well, FIpos is the average fluorescence intensity of the positive (NEM) control wells, and FIneg is the average fluorescence intensity of the negative (DMSO) control wells.
# USP16 = USP16 (Homo sapiens, UniProt Q9Y5T5); experiment: biochemical
# Chain of USP16 (Q9Y5T5 22-823): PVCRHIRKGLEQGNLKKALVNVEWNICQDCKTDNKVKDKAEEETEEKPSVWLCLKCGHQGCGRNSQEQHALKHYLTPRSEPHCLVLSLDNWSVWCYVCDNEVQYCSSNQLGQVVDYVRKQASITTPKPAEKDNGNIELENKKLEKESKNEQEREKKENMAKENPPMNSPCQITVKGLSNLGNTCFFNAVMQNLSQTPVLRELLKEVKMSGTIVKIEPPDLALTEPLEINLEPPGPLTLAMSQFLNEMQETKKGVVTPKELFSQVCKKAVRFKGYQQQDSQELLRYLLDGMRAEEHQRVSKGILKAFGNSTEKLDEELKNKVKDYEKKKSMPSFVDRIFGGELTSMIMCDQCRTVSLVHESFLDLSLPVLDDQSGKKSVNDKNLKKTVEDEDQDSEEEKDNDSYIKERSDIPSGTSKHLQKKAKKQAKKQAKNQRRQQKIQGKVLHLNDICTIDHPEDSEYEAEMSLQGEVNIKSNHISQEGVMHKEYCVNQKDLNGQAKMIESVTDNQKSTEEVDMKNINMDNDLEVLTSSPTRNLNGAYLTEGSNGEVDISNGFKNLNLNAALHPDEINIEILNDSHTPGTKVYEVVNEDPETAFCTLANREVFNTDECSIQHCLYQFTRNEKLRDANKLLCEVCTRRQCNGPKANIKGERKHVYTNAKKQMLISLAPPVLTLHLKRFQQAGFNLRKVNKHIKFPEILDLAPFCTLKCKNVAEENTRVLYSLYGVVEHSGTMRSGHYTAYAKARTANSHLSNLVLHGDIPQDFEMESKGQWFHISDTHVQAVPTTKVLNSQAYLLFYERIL
# Procedure: (§1) This panel included five proteases from the USP family, two from the UCH family, and one OTU. The IC50 values were determined in a well‐established biochemical activity assay using the fluorogenic substrate Ub‐Rho‐morpholine.^[ [33] ^]
# (§2) Enzymes were pre-incubated with a concentration series of the compounds for 30 minutes at
# (§3) room temperature, before addition of the substrate and direct read-out by fluorescence
# (§4) intensity. Data is presented as mean ± SD, n=3.
# (§5) USP16 Full length N-terminal His-tag Q9Y5T5 In-house, [Mons, 2 nM
# IC50 and kinact/KI determination
# (§6) The assays were performed at room temperature in “nonbinding surface flat bottom low flange”
# (§7) TrisꞏHCl, 100 mM NaCl, pH 7.6, 2.0 mM cysteine, 1 mg/mL 3-[(3-cholamidopropyl)-
# (§8) dimethylammonio]propanesulfonic acid (CHAPS), and 0.5 mg/mL γ-globulins from bovine
# (§9) blood (BGG). […] The compounds were dissolved in 10
# (§10) mM DMSO stocks, and appropriate volumes were transferred to the empty plates using a
# (§11) Labcyte Echo550 acoustic dispenser. A DMSO back-fill was performed to obtain equal volumes of DMSO (400 μL) in each well. N-ethylmaleimide (NEM, 10 mM) was used a positive
# (§12) steps were performed on a Biotek MultiflowFX liquid dispenser. A 10 μL portion of buffer was added and the plate was vigorously shaken for 20s. Next, 5 μL of recombinant enzyme (4x final concentration) was added followed by incubation for 1h. A 5 μL portion of the substrate
# (§13) (Ub-RhoMP[2] for all DUBs, ISG15ct-RhoMP (vide supra) for USP18 and Z-FR-AMC [Bachem,
# (§14) RhoMP, 10 µM for Z-FR-AMC), and the increase in fluorescence over time was recorded using
# (§15) excitation 360 nm, emission 450 nm for AMC). The initial enzyme velocities were calculated
# (§16) from the slopes, normalized to the positive and negative controls, and plotted against the
# (§17) inhibitor concentrations using the built-in equation “[inhibitor] vs response − variable slope
# (§18) (four parameters), least-squares fit” with constraints “Bottom = 0” and “Top = 100” in GraphPad
# (§19) Prism 7 software to obtain the IC50 values.
# (§20) All data fitting and calculations were done using GraphPad Prism 7 software.
# UCHL1 = molecular target: T4, UCHL1 (Homo sapiens, UniProt P09936); experiment: IC50 determination, fluorogenic Ub-Rho-morpholine activity assay; format: biochemical; conditions: after 30 min incubation; purified compound
# T4 construct: (1-223); made in house
# T4 sequence (P09936 1-223): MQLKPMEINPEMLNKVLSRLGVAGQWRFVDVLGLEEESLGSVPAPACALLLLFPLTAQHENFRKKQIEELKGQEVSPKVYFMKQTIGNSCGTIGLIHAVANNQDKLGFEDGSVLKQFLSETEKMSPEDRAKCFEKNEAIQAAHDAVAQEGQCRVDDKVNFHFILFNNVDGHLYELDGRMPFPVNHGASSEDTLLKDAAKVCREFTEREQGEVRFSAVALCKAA
# mUSP18 [2] = molecular target: T5, mUSP18 (Mus musculus, UniProt Q9WTV6); experiment: High-throughput screening, ISG15ct-RhoMP, single dose 1.25 µM; format: biochemical, murine; conditions: crude in-plate synthesized compound, 1.25 µM assuming full conversion; read-out: %inhibition mUSP18
# T5 construct: (46-368); His-tag (N); made in house
# T5 sequence (Q9WTV6 46-368): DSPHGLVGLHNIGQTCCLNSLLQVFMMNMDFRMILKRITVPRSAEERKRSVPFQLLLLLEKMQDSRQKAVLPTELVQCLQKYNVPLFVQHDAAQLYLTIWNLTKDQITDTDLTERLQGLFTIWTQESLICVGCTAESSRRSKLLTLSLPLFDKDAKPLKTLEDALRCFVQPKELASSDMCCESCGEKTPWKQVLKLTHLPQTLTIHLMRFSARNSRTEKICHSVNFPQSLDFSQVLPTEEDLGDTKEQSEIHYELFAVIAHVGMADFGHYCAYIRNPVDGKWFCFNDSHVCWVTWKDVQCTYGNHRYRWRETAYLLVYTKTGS
# OTUB2 = molecular target: T6, OTUB2 (Homo sapiens, UniProt Q96DC9); experiment: biochemical
# T6 sequence (Q96DC9 1-234): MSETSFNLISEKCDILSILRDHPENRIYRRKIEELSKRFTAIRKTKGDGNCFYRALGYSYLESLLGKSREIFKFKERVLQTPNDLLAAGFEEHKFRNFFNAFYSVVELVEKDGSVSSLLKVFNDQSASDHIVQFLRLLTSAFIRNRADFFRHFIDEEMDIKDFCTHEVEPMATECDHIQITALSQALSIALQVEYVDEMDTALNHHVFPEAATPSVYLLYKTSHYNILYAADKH
# Procedure: as §1, §2, §3, §4, §5
# IC50 and kinact/KI determination
# as §6, §7, §8, §9, §10, §11
# steps were performed on a Biotek MultiflowFX liquid dispenser. […]
# as §14
# excitation 360 nm, emission 450 nm for AMC). The initial enzyme velocities were calculated […]
# mUSP18 [3] = molecular target: T5, mUSP18; experiment: IC50 determination, fluorogenic ISG15CT-Rho-morpholine activity assay; format: biochemical, murine; conditions: after 30 min incubation; purified compound; ISG15CT-Rho-morpholine substrate
# USP30 [4] = molecular target: T3, USP30; experiment: biochemical
# Procedure: This panel included five proteases from the USP family, two from the UCH family, and one OTU. The IC50 values were determined in a well‐established biochemical activity assay using the fluorogenic substrate Ub‐Rho‐morpholine.^[ [33] ^] For USP18, which is unreactive to Ub but specific for ISG15, we used the ISG15CT‐Rho‐morpholine (consisting of the C‐terminal domain of ISG15) substrate to monitor its activity (see Supporting Information for preparation of this substrate).
# as §2, §3, §4
# room temperature, followed by the addition of substrate and direct read-out by fluorescence
# IC50 and kinact/KI determination
# as §6, §7, §8, §9, §10, §11, §12, §13, §14, §15, §16, §17, §18, §19, §20
# USP7 = molecular target: T7, USP7 (Homo sapiens, UniProt Q93009); experiment: IC50 determination, fluorogenic Ub-Rho-morpholine activity assay; format: biochemical; conditions: after 30 min incubation; purified compound
# T7 construct: (1-1102); GST (cleaved yes); made in house
# T7 sequence (Q93009 whole entry): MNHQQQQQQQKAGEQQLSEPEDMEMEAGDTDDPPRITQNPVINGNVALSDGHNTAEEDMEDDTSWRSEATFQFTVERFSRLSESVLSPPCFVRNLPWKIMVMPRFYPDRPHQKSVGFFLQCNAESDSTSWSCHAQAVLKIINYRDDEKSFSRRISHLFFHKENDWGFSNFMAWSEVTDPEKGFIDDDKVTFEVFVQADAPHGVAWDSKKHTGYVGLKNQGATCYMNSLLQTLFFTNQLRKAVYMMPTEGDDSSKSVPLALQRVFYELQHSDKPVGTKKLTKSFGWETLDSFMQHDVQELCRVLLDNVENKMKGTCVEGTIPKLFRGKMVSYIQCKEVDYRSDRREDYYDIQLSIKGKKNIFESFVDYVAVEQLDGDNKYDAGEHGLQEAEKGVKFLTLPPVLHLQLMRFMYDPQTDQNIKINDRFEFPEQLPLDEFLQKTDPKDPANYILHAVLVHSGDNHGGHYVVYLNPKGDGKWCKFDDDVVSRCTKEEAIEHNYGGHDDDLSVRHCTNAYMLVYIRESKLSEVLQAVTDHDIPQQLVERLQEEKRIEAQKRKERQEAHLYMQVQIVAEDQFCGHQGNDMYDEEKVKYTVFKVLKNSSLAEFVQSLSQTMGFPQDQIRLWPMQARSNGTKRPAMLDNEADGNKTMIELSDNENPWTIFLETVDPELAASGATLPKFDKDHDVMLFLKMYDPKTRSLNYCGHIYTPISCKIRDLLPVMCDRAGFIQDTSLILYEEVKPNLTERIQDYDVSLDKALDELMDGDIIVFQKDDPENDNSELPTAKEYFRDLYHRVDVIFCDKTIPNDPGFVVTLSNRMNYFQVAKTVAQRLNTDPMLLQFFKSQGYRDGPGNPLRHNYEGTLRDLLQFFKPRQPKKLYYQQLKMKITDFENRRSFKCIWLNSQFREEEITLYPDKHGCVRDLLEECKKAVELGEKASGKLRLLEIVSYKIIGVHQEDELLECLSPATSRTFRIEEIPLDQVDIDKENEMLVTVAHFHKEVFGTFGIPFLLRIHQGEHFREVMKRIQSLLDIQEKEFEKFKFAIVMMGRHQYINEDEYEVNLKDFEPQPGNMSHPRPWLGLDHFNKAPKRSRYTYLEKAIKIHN
# T1 sequence (Q8NFA0 whole entry): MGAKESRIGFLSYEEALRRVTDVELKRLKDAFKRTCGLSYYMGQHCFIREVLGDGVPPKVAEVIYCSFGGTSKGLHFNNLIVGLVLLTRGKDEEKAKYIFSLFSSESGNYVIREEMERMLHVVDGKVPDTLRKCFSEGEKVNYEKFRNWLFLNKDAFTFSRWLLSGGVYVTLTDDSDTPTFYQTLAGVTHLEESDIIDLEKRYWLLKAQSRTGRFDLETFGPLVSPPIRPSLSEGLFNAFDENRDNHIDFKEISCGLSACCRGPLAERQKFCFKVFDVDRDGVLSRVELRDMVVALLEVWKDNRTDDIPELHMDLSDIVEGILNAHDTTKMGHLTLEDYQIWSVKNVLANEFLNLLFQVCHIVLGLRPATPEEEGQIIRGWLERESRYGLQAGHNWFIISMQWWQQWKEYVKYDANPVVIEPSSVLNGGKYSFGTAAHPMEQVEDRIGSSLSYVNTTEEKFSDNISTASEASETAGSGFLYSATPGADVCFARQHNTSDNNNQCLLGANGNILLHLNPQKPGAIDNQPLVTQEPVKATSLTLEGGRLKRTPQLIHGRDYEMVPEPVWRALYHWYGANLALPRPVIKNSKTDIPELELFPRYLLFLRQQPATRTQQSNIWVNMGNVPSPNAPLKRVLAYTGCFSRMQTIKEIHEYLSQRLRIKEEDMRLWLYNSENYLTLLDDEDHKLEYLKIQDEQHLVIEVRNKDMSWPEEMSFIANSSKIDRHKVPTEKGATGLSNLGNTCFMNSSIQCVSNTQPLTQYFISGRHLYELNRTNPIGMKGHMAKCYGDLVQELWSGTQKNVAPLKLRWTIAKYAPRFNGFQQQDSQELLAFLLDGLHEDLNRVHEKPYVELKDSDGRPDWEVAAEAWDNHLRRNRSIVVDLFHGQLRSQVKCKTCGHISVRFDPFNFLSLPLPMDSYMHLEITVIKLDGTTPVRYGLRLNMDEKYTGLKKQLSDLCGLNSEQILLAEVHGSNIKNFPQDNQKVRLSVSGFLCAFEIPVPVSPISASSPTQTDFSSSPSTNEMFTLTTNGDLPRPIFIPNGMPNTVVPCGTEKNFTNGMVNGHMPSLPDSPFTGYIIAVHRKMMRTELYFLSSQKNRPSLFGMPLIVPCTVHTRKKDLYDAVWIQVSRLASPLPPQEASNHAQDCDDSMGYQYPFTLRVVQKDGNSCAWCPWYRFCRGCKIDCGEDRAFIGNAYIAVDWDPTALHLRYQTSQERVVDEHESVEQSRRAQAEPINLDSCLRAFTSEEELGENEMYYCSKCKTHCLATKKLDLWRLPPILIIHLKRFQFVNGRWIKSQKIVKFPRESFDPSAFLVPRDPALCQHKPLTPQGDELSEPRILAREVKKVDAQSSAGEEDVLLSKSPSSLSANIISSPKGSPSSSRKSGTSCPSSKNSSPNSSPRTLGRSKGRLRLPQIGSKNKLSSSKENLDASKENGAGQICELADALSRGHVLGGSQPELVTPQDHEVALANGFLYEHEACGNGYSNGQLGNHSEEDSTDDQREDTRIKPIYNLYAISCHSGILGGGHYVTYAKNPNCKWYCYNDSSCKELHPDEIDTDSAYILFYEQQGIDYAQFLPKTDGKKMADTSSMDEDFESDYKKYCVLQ
smiles,measurement,setting,value
N#CN1CC[C@@H](NC(=O)c2cc(-c3cccc(Cl)c3)no2)C1 [Compound 1],IC50,USP32,0.53 µM
same,IC50,UCHL3,229 µM
same,%inhibition USP30,USP30 [1],~90%
same,IC50,USP16,5.1 µM
same,IC50,UCHL1,54 µM
same,inhibition at 1.25 µM,mUSP18 [2],~90%
same,IC50,OTUB2,> 200 µM
same,IC50,mUSP18 [3],0.079 µM
same,IC50,USP30 [4],0.043 µM
same,IC50,USP7,42 µM
